Common to all, as to experiment: NCI anticancer screen, dose series, 48 h
Test [1] concerns DLD-1.
Test [2] relates to DMS-114.
Test [3] deals with KM-20L2.
Test [4] deals with LXFL 529.
Test [5] concerns M19-MEL.
For test [6], the system named is XF498.
Test [7] has as its system DMS-273.
The subject of test [8] is HOP-18.
The test system of test [9] is RXF 631.

Each structure is given as a SMILES string.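 48-hour exposure; five concentrations; linearly interpolated endpoints. The concentration for 50% growth inhibition is given as GI50.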 Calls of active or inactive are those of the source. No stated cut-off is given here; in the data, active = GI50 up to about 1.1 µM and inactive = higher.

On to `COc1ccc(/C=C2/C(=O)N(C(=O)c3ccc(Cl)cc3)N=C2C)cc1OC`, for which the GI50 in test [1], in [2], in test [3], in test [4], in test [5] and in [6] was > 100 µM (inactive) in each case.
With `CC(=O)O.CN1CCN(CN2C(=O)C3C4C=CC(C3C2=O)C2C3C(=O)N(CN5CCN(C)CC5)C(=O)C3C42)CC1` (stereo not given), the GI50 was 19.1 µM (inactive) in test [1], 20.1 µM (inactive) in [2], 20.3 µM (inactive) in [3] and 18.1 µM (inactive) in test [4].
With `COc1ccc(S(=O)(=O)N(C)CC(=O)O)cc1`, the GI50 in [1], in test [7], in test [8], in test [3], in test [4] and in test [5] was > 100 µM (inactive) in each case. Besides, the GI50 in test [9] and in test [6] was > 100 µM (inactive) throughout.
For `Cc1ccc(C(=O)/C=C/c2ccccc2O)c(C)c1`, the GI50 was > 100 µM (inactive) in [1]; > 100 µM (inactive) in test [2]; > 100 µM (inactive) in test [7]; > 100 µM (inactive) in test [3]; > 100 µM (inactive) in [4]; 1.35 µM (inactive) in test [5].
With `COc1ccccc1/C=N/N=C(\N)NO`, the GI50 is 23.8 µM (inactive) in [1]; 5.78 µM (inactive) in [2]; 48.9 µM (inactive) in test [8]; 3.3 µM (inactive) in test [4]; 19.8 µM (inactive) in test [5].
As to `c1ccc2c(c1)[Se]c1ccccc1[Se]2`, the GI50 was 53.8 µM (inactive) in [1]; 67 µM (inactive) in test [2]; > 100 µM (inactive) in [7]; 4.92 µM (inactive) in test [8]; > 100 µM (inactive) in [3]; 61.4 µM (inactive) in test [4]. Also, the GI50 in test [5] and in test [6] was > 100 µM (inactive) throughout.
Take `Cc1cc(NC(=O)C2C3C=CC(O3)C2C(=O)O)no1` (stereo not given): the GI50 in [1] was 24 µM (inactive); in [2] it was 15.7 µM (inactive); in [7] it was 16.8 µM (inactive); in test [8], > 100 µM (inactive); in test [3] it was 13.7 µM (inactive); in test [4] it was 20.4 µM (inactive). Besides, the GI50 was 28.1 µM (inactive) in [5], 80.5 µM (inactive) in [9] and > 100 µM (inactive) in test [6].
In the case of `Cc1ccc(S(=O)(=O)OC2CC=CC2)cc1`, the GI50 in test [1], in [2], in [7], in test [8], in test [3] and in test [4] was > 100 µM (inactive) each time. Moreover, the GI50 in test [5] and in [6] was > 100 µM (inactive) each time.
Consider `CC(C)c1cc2c(O)c(c1)Cc1cc(C(C)C)cc(c1O)Cc1cc(C(C)C)cc(c1O)Cc1cc(C(C)C)cc(c1O)C2`, for which the GI50 in test [1], in [2], in test [7], in [8], in test [3] and in test [5] was > 100 µM (inactive) in each case. Also, in test [6], the GI50 was > 100 µM (inactive).
On to `O=C1NC(=O)C(CCC(=O)c2ccc3ccccc3c2)C(=O)N1`, for which the GI50 in test [1], in [2], in [7], in test [8], in test [3] and in test [4] was > 100 µM (inactive) throughout. Moreover, the GI50 in [5], in test [9] and in test [6] was > 100 µM (inactive) each time.
As for `COc1cc(C2C(C(=O)O)=C(C)Oc3cc4c(cc32)OCO4)cc(OC)c1OC` (stereo not given), the GI50 was 29 µM (inactive) in test [1]; 16.2 µM (inactive) in [2]; 13.7 µM (inactive) in [7]; 28.8 µM (inactive) in test [8]; 32.4 µM (inactive) in test [3]; 30.8 µM (inactive) in [5]. Besides, the GI50 is 36.1 µM (inactive) in test [9] and 42.2 µM (inactive) in test [6].
For `CC(O)CN1C(=O)NC(Cc2ccccc2)C1=O` (stereo not given), the GI50 in [1], in test [2], in test [7], in test [8], in test [3] and in [4] was > 100 µM (inactive) throughout. Also, the GI50 in [6] is > 100 µM (inactive).
As to `Cc1cc2c(c(C(N)=O)c1C)-c1ccccc1C2=O`, the GI50 in test [1], in test [2], in test [7], in test [8], in [3] and in [4] was > 100 µM (inactive) in each case. In addition, the GI50 in test [5] and in test [9] was > 100 µM (inactive) each time.
Turning to `COc1ccccc1N1C(=O)/C(=C/c2ccc(N(CCC#N)CCC#N)cc2C)N=C1c1cc([N+](=O)[O-])ccc1Cl`, the GI50 in test [2] is > 100 µM (inactive); in [7], > 100 µM (inactive); in [8] it was > 100 µM (inactive); in [3], > 100 µM (inactive); in [4] it was > 100 µM (inactive); in test [5], 24.2 µM (inactive). In [6], the GI50 is > 100 µM (inactive).
In the case of `CC(=O)Nc1cc(N(CCOS(C)(=O)=O)CCOS(C)(=O)=O)ccc1N=O`, the GI50 in [1], in [2], in [7], in test [3], in [4] and in test [5] was > 100 µM (inactive) in each case. The GI50 in test [6] is > 100 µM (inactive).
With `O=C(CCn1[nH]c(=O)c(Cl)c(Cl)c1=O)NO`, the GI50 in test [1], in [2], in test [7], in test [8], in test [3] and in test [4] was > 100 µM (inactive) throughout. In addition, the GI50 in test [5] and in test [6] was > 100 µM (inactive) in each case.
As to `CCN(CC)CCNc1c2ccccc2nc2cccc([N+](=O)[O-])c12`, the GI50 in test [1] is 0.0225 µM (active); in test [2], 0.0241 µM (active); in [7] it was 0.0358 µM (active); in test [3], 0.0303 µM (active); in test [4] it was 0.0211 µM (active); in [5] it was 0.0352 µM (active). In addition, the GI50 in [9] is 0.0317 µM (active); in test [6], 0.0193 µM (active).
Regarding `COc1cccc(SSc2cccc(OC)c2C(=O)O)c1C(=O)O`, the GI50 in test [1], in test [2], in test [7], in [8], in test [3] and in test [4] was > 100 µM (inactive) each time. For the same compound, the GI50 in test [5], in test [9] and in test [6] was > 100 µM (inactive) each time.
Consider `O=C(CNc1ccc2c(=S)c3ccccc3[nH]c2c1)Nc1ccccc1-c1ccccc1NC(=O)CNc1ccc2c(=S)c3ccccc3[nH]c2c1`, for which the GI50 in test [1] is 11 µM (inactive); in [2] it was 17.1 µM (inactive); in test [7] it was > 46 µM (inactive); in [8], 16.1 µM (inactive); in test [3] it was 19.7 µM (inactive); in test [4] it was 7.45 µM (inactive). Further, the GI50 in test [5] was > 39.2 µM (inactive); in test [6] it was 19.1 µM (inactive).
As for `CC(=O)Oc1ccc(C(c2ccc(OC(C)=O)cc2)c2ccccn2)cc1` [BISACODYL], the GI50 is 7.11 µM (inactive) in test [1]; 0.57 µM (active) in test [2]; > 100 µM (inactive) in test [7]; > 47 µM (inactive) in [8]; 54.2 µM (inactive) in test [3]; 28.8 µM (inactive) in test [4]. In addition, the GI50 in [5] was 97.5 µM (inactive); in test [9] it was > 100 µM (inactive); in test [6], 40.1 µM (inactive).
On to `NCCCC(N)(C(=O)O)C(F)F` (stereo not given) [EFLORNITHINE], for which the GI50 was > 3160 µM (inactive) in test [1]; > 5000 µM (inactive) in test [2]; 1220 µM (inactive) in test [7]; > 50 µM (inactive) in test [8]; > 5000 µM (inactive) in test [3]; > 100 µM (inactive) in test [4]. Besides, the values for the GI50 in [5] and in [9] were > 3450 µM (inactive) and > 100 µM (inactive), respectively.
For `O=CN/C=C/c1cc(O)ccc1O` [ERBSTATIN], the GI50 was 16 µM (inactive) in [1]; 17.6 µM (inactive) in test [2]; 77.1 µM (inactive) in test [7]; > 40.6 µM (inactive) in test [8]; 52.2 µM (inactive) in test [3]; 11.6 µM (inactive) in test [4]. Further, the results for the GI50 in test [5] and in test [6] were 13.3 µM (inactive) and 19.8 µM (inactive), respectively.

These data come from ChEMBL document CHEMBL1201862, “PubChem BioAssay data set” (2004).
